Experimental data taken from patent US20180000750A1, “ANTIPLATELET AGENT AND USES THEREOF” (priority 2015, published 2018).

How the values were obtained:
P2Y12 receptor = molecular target: T1, P2Y12 receptor (Homo sapiens, UniProt Q9H244); experiment: VerifyNow P2Y12 assay (PRU); type: cell-based; settings: no treatment 314
T1 construct: It is a whole-blood assay based on light transmission measurements; endogenous in cells; host or cells: platelets in citrated whole blood of healthy volunteers
Description: (§1) It is a whole-blood assay based on light transmission measurements. The assay is a turbidimetric-based optical detection system that, like optical aggregometry, depends on the ability of activated platelets to bind fibrinogen. When platelets are activated, they form aggregates with fibrinogen-coated beads and the light transmission through the samples increases. Arachidonic acid, ADP and thrombin receptor activating peptide are the corresponding agonists used in VerifyNow system to specifically differentiate the platelet activation pathways. In the aspirin-specific assay, the degree of aggregation attenuated by aspirin, which blocks the arachidonic acid pathway, is quantified according to a corresponding decrease in light transmission and is reported as aspirin reaction units (ARU). ARU value less than 550 indicates adequate platelet inhibition by aspirin treatment. The residual activity of platelet after inhibition on P2Y12 receptor is represented as the P2Y12 reaction units (PRU). The normal PRU distribution range without anti-platelet therapy is 194-418. P2Y12 antagonist like clopidogrel and ticagrelor may be used as the positive control. […] The reference range was 125-330. Aggrastat may be used as the positive control medication for PAU value.
(§2) The VerifyNow P2Y12 system measures the rate and extent of changes in light transmittance caused by platelets aggregating in whole blood samples.

arachidonic acid pathway = experiment: VerifyNow aspirin assay (ARU); type: cell-based, human; settings: no treatment 660
Description: as §1, §2

[1] = tested on: adhesion of THP-1 to HUVECs; experiment: THP-1 cell adhesion to TNF-α-activated HUVECs; type: cell-based, human; settings: 80 μM, TNF-α-exposed cells, compared to TNF-α alone
Experimental: HUVECs were starved in serum-free medium for 1 hour before treatments. For adhesion assays, HUVECs monolayers in 96-well plates were treated for 2 hours with physalin B and/or TNF-α for 4 hours. After treatment, 1×10^6 THP-1 cells labeled with 5 μM calcein-AM were seeded onto confluent HUVECs and co-cultured for 30 min at 37° C. in 5% CO2 incubator. Non-adherent THP-1 cells were removed by washing with 1× phosphate buffered saline (PBS) twice. Cell images were collected by a fluorescence microscope (Zeiss) and quantified using a fluorescence microplate reader at an excitation wavelength of 490 nm and an emission wavelength of 525 nm (Bio-Tek Synergy HT).
The in vitro adhesion of THP-1 to HUVECs was monitored by use of a fluorescence dye, Calcein-AM, which stains only the viable cells. Briefly, THP-1 cells were labeled with calcein-AM first, then co-cultured with physalin B pre-treated HUVECs in the presence of TNF-α, which was added to induce inflammation. The fluorescence intensity at 525 nm was then measured.

platelets [2] = experiment: Lactate dehydrogenase release from platelets (cytotoxicity); type: cell-based; settings: up to 160 μM, 30 min at 37° C.
Experimental: Cytotoxicity of physalin B on platelets were evaluated by measuring the release of lactate dehydrogenase (LDH). Platelets were suspended in Tyrodes's solution at a concentration of 3×10^8 platelets/ml. For positive control, platelets were disrupted by sonication at 4° C. for 30 sec at 40 kHz with a Biosonic Sonicator. The supernatant was used for LDH determinations. LDH activity was measured as an increase in the absorbance of NADH at 340 nm using lactate as substrates. The tests were carried out with a Toshiba Medical automatic chemical analyzer, TBA-200FR (Toshiba Medical products). The platelets were pretreated with various concentrations of physalin B for 30 min at 37° C., and the supernatant was used to measure the LDH activity.
In this example, the cytotoxic effect of physalin B on platelets was investigated by measuring the activity of lactate dehydrogenase (LDH) released from the ruptured platelets. The platelets were exposed to various concentrations of physalin B (PHB) or DMSO, which was used as the vehicle control, while sonication ruptured platelets served as a positive control. The final concentration of DMSO in the test medium was less than 0.1%. Results are depicted in FIG. 4.

platelets [3] = experiment: PFA-100 platelet function, collagen/ADP (CADP) cartridge closure time; type: cell-based, human; settings: 10 μM, collagen/ADP stimulus, citrated whole blood
Experimental: (§3) Ten healthy, non-smoking volunteers (6 women, 4 men), ages 23-39 years old, participated in this study. The citrated whole blood samples were incubated at room temperature for 60 min. with physalin B (dissolved in 0.5% DMSO) or the vehicle alone. Platelet function measurement was performed with a PFA-100 analyzer system (Dade-Behring, Marburg, Germany). The PFA-100TM device measures the closure time (CT) required for platelets to plug an aperture simulating an injured vessel after platelet activation by relevant stimuli, namely collagen-epinephrine (EPI) or collagen-ADP (ADP). The maximum value for closure time is 300 seconds and values greater than 300 seconds are reported as non-closure. The closure time was determined with duplicate samples of 800 μL using cartridges containing collagen-epinephrine or collagen-ADP membranes.
(§4) The PFA-100 system is a platelet function analyzer designed to measure platelet-related primary hemostasis. The system uses two disposable cartridges: a collagen/epinephrine (CEPI) and a collagen/ADP (CADP) cartridge.

platelets [4] = experiment: PFA-100 platelet function, collagen/epinephrine (CEPI) cartridge closure time; type: cell-based, human; settings: 10 μM, collagen-epinephrine stimulus, citrated whole blood; control 125 sec
Experimental: as §3, §4

[5] = molecular target: T2, platelet glycoprotein (GP) IIb/IIIa receptors (Homo sapiens, UniProt P05106+P08514); experiment: VerifyNow GPIIb/IIIa assay (PAU); type: cell-based; settings: no treatment 161
T2 construct: It is a whole-blood assay based on light transmission measurements; endogenous in cells; host or cells: platelets in citrated whole blood of healthy volunteers
Description: as §1, §2

Tail bleeding time = type: in vivo, ICR mice; settings: mice, intraperitoneal, 0.1 mg/Kg, cut 30 minutes after treatment; DMSO vehicle 83.1±11.7 sec
Description: (§5) ICR mice (7-8 weeks old, each weighted about 18 to 25 g) were used in this study. All mice were maintained in the animal facility under 12 hrs light/dark cycle, with ad libitum access to food and water.
Briefly, the test mice were randomly divided into three groups, in which the control mice received intraperitoneal injection of normal saline, whereas mice in the vehicle and the test groups respectively received intraperitoneal injection of the vehicle (i.e., DMSO) and Physalin B (i.e., […]). A cut (about 2-3 mm in length) was incised on the tail vein of each mice (about 3-5 cm from the tip of the tail) 30 minutes after the indicated treatment, then the blood was collected into a warm saline, in which the volume and the time to cessation of bleeding were both measured. Bleeding time was defined as the time in which the first cessation of bleeding was observed. Results are illustrated in FIG. 2.

HUVECs = experiment: MTT cell viability, HUVECs; type: cell-based, human; settings: 48 hrs, read-out: IC50 (cytotoxicity, MTT)
Experimental: HUVECs were purchased from American Type Culture Collection (ATCC) and were cultivated in endothelal cell nutrient medium consisting of 20% heat-inactivated fetal bovine serum (FBS), 80% Medium 199 (M199) buffered with 25 mM HEPES and supplemented with 2 mM L-Glutamine and 100 U/ml K-Penicillin and 100 μg/mL streptomycin, and kept at 37° C. in a 5% CO2 atmosphere.
Cell viability was measured with blue formazan that was metabolized from 3-(4,5-dimethylthiazol-2-yl)-2, 5-diphenyl tetrazolium bromide (MTT, Amresco USA) in mitochondria, which is active only in live cells. HUVEC and late EPCs were seeded in a 96-well plate at a density of 1×10^5 cells per well, cultured overnight and pretreated with various concentrations of physalin B. After incubation for 6 hr, 24 hr and 48 hr, the MTT (5 mg/ml) colorimetric viability test was used to determine the viability of cells. The absorbance of each well was measured at 540 nm with an ELISA reader and the percentage viability was calculated.
The in vitro cytotoxic effect of physalin B on HUVEC and EPCs were respectively determined by MTT assay, in which cells were exposed to various concentrations of physalin B (i.e., 0, 20, 40, 80 and 160 μM). Results are illustrated in FIGS. 5A and 5B.

[6] = Occlusion time for irradiation induced platelet plug formation in mesenteric venules; type: in vivo, ICR mice; settings: mice, DMSO vehicle 241±6.8 sec
Description: as §5
In this example, the effects of Physalin B on the aggregation of platelets were investigated by the measurement of the occlusion time for irradiation induced platelet plug formation. Briefly, mice were respectively treated with normal saline, DMSO vehicle, and Physalin B (i.e., 0.025, 0.05, or 0.1 mg/g), then the mesentertic venules were selected for irradiation to induce microthrombus formation. The occlusion time was defined as the time in which the platelet plug was first observed. Results are illustrated in FIG. 3.

late EPCs = experiment: MTT cell viability, late EPCs; type: cell-based, human; settings: 48 hrs, read-out: IC50 (cytotoxicity, MTT)
Experimental: Two different types of EPCs were cultured from adult peripheral blood and defined as early EPCs and late EPCs according to their time-dependent appearance. […] Peripheral blood (20 mL) was obtained from donors with informed consent. The mononuclear cells were fractionated from other components of peripheral blood by centrifugation on Histopaque 1077 (Sigma, St. Louis, Mo.), with gradients according to the manufacturer's instructions. The isolated mononuclear cells were re-suspended with a EGM-2 BulletKit system (catalog number CC-3162; Clonetics™) consisting of an endothelial basal medium, 5% fetal bovine serum, hEGF, VEGF, hFGF-B, IGF-1, ascorbic acid, and heparin; 1×10^7 mononuclear cells per well were seeded on 2% gelatin-coated 6-well plates (Sigma, St. Louis, Mo.) and incubated in a 5% CO2 incubator at 37° C. […]
Cell viability was measured with blue formazan that was metabolized from 3-(4,5-dimethylthiazol-2-yl)-2, 5-diphenyl tetrazolium bromide (MTT, Amresco USA) in mitochondria, which is active only in live cells. […] The absorbance of each well was measured at 540 nm with an ELISA reader and the percentage viability was calculated.
The in vitro cytotoxic effect of physalin B on HUVEC and EPCs were respectively determined by MTT assay, in which cells were exposed to various concentrations of physalin B (i.e., 0, 20, 40, 80 and 160 μM). […]

[7] = reference drug treatment, normal range 194-418

T1 sequence (Q9H244 whole entry): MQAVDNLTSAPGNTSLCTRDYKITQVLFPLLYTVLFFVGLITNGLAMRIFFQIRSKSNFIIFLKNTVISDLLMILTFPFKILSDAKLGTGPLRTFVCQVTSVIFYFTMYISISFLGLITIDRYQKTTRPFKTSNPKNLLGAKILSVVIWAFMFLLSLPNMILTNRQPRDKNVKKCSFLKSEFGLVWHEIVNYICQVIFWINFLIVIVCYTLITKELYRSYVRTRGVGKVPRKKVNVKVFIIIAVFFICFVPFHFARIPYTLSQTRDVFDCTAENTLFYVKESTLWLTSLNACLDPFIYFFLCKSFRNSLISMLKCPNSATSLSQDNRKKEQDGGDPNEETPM
T2 sequence (P08514 32-887 limits assumed): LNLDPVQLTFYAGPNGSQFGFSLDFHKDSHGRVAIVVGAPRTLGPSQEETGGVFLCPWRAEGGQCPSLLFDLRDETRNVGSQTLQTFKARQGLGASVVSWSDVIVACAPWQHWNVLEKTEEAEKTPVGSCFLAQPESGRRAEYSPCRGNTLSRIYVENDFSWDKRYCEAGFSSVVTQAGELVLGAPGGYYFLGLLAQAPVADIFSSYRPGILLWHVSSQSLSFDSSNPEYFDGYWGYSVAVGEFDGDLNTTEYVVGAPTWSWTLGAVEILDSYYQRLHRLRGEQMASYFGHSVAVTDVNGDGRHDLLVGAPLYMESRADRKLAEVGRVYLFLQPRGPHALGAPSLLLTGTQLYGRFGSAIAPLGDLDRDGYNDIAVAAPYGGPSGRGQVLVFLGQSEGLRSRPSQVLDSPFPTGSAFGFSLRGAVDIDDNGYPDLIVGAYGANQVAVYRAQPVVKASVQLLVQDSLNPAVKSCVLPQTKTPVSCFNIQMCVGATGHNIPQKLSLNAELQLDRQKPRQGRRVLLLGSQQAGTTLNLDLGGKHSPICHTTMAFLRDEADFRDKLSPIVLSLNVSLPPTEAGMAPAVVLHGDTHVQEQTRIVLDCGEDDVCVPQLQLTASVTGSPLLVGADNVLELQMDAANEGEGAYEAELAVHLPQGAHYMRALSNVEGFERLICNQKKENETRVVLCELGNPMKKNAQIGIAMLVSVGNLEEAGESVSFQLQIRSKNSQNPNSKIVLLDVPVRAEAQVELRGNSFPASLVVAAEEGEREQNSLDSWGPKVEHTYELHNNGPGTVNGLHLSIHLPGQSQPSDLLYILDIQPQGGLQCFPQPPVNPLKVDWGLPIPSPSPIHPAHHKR
T2 sequence (P08514 891-1039 limits assumed): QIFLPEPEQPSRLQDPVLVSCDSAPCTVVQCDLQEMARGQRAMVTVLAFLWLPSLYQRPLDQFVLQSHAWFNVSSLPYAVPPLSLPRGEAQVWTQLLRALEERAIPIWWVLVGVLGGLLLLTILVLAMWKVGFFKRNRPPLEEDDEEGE
T2 sequence (P05106 27-788): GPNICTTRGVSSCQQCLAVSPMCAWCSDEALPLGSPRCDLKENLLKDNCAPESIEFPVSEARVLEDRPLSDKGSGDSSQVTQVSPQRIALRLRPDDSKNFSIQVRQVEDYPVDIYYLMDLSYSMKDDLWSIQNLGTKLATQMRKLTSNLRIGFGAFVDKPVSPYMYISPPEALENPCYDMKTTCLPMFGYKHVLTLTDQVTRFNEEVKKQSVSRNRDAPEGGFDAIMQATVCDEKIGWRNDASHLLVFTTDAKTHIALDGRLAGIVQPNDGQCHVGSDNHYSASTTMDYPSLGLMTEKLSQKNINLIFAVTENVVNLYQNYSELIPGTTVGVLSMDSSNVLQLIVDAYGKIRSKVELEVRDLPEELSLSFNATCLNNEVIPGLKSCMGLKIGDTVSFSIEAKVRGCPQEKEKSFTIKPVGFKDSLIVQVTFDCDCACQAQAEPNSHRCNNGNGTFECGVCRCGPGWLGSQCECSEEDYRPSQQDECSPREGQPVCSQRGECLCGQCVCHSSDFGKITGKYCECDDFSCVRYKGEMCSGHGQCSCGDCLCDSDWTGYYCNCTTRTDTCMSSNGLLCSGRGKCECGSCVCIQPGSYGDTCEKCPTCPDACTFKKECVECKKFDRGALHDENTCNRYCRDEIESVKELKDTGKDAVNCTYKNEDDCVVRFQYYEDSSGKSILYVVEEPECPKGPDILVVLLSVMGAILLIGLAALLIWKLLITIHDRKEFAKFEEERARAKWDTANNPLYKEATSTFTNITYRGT

In the case of `C[C@]12C(=O)C=CCC1=CC[C@@H]1[C@@H]2CC[C@]2(O)C(=O)O[C@@]3(C)[C@H]4C[C@]5(C)[C@@H](CO[C@@]16O[C@@]32[C@H]5C6=O)C(=O)O4` [Physalin B], the “P2Y12 (PRU)” value (P2Y12 receptor; 20 μM) is reported as 226 PRU, the “P2Y12 (PRU)” value (P2Y12 receptor; 50 μM) is reported as 65 PRU and the “Aspirin (ARU)” value (arachidonic acid pathway; 20 μM) is reported as 469 ARU. The “Aspirin (ARU)” value (arachidonic acid pathway; 50 μM) was 366 ARU, the “inhibition on the adhesion of THP-1 to HUVECs” value [1] was “about 35%” and the “LDH release from platelets” value (platelets [2]) was “no obvious LDH release”. The closure time (platelets [3]) was “statistically significant prolonged closure time”, the closure time (platelets [4]) was 260 s and the “GPIIb/IIIa (PAU)” value ([5]; 20 μM) was 144 PAU. For the same molecule, the “GPIIb/IIIa (PAU)” value ([5]; 50 μM) was 129 PAU, the tail bleeding time (Tail bleeding time) was 224.4 ± 58.9 s and the IC50 (HUVECs) was 30 µM. For the same molecule, the occlusion time ([6]; 0.025 mg/g) was 349 ± 12.3 s, the occlusion time ([6]; 0.05 mg/g) was 390 ± 7 s and the occlusion time ([6]; 0.1 mg/g) was 415 ± 34.5 s. For the same molecule, the IC50 (late EPCs) was 76 µM.

In the case of `CCCCS(=O)(=O)N[C@@H](Cc1ccc(OCCCCC2CCNCC2)cc1)C(=O)O` [Aggrastat, reference compound], the “GPIIb/IIIa (PAU)” value ([5]; reference drug treatment, reference range 125-330) is reported as 1 PAU.

With `COC(=O)[C@H](c1ccccc1Cl)N1CCc2sccc2C1` [Clopidogrel, reference compound] the “P2Y12 (PRU)” value (P2Y12 receptor; [7]) was 263 PRU.

With `CC(=O)Oc1ccccc1C(=O)O` [Aspirin, Acetylsalicylic acid, reference compound] the “Aspirin (ARU)” value (arachidonic acid pathway; reference drug treatment, <550 indicates adequate inhibition) was 404 ARU.

For `CCCSc1nc(N[C@@H]2C[C@H]2c2ccc(F)c(F)c2)c2nnn([C@@H]3C[C@H](OCCO)[C@@H](O)[C@H]3O)c2n1` [Ticagrelor, reference compound], the “P2Y12 (PRU)” value (P2Y12 receptor; [7]) was 1 PRU.
